Data from patent US20090221581A1, “Methods of treating pain” (priority 2005, published 2009).

Assays:
CDK1/CycB = molecular target: T1, CDK1/CycB (Homo sapiens, UniProt P06493); assay: In vitro kinase inhibition assay, CDK1/CycB; assay type: biochemical
T1 construct: made in house; host or cells: Sf9 insect cells, baculovirus

CDK3/CycE = molecular target: T2, CDK3/CycE (Homo sapiens, UniProt Q00526); assay: In vitro kinase inhibition assay, CDK3/CycE; assay type: biochemical
T2 construct: made in house; host or cells: Sf9 insect cells, baculovirus

CDK4/CycD1 = molecular target: T3, CDK4/CycD1 (Homo sapiens, UniProt P11802); assay: In vitro kinase inhibition assay, CDK4/CycD1; assay type: biochemical
T3 construct: host or cells: Sf9 insect cells, baculovirus
Method: (§1) In vitro kinase inhibition assays may be performed according to the following protocol:
(§2) Compounds are used as 1×10^−02 M stock solutions in 100% DMSO, 100 μl each in column 2 of three 96-well V-shaped microtiter plates (in the following, said plates are referred to as “master plates”).
(§3) Subsequently, the 1×10^−02 M stock solutions in column 2 of the master plates are subjected to a serial, semi-logarithmic dilution using 100% DMSO as a solvent, resulting in 10 different concentrations, the dilution endpoint being 3×10^−07 M/100% DMSO in column 12. Column 1 and 7 are filled with 100% DMSO as controls. […]
(§4) For the determination of inhibitory profiles, the following protein kinases were used: CDK2/CycA, CDK4/CycD1, CDK6/CycD1 and CDK9/CycT. […] The purity of each kinase is determined by SDS-PAGE/silver staining and the identity of each kinase is verified by western blot analysis with kinase specific antibodies or by mass spectroscopy. […]
(§5) Reaction mixtures are incubated at 30° C. for 80 minutes. […] Incorporation of ^33P is determined with a microplate scintillation counter (Microbeta, Wallac). […]
(§6) The median value of the counts in column 1 (n=8) of each assay plate is defined as “low control”. This value reflects unspecific binding of radioactivity to the plate in the absence of a protein kinase but in the presence of the substrate. […]

CDK5/p35NCK = molecular target: T4, CDK5/p35NCK (Homo sapiens, UniProt Q00535); assay: In vitro kinase inhibition assay, CDK5/p35NCK; assay type: biochemical
T4 construct: made in house; host or cells: Sf9 insect cells, baculovirus

CDK6/CycD1 = molecular target: T5, CDK6/CycD1 (Homo sapiens, UniProt Q00534); assay: In vitro kinase inhibition assay, CDK6/CycD1; assay type: biochemical
T5 construct: host or cells: Sf9 insect cells, baculovirus
Method: as §1, §2, §3, §4, §5, §6

CDK9/CycT = molecular target: T6, CDK9/CycT (Homo sapiens, UniProt P50750); assay: In vitro kinase inhibition assay, CDK9/CycT; assay type: biochemical
T6 construct: host or cells: Sf9 insect cells, baculovirus
Method: as §1, §2, §3, §4, §5, §6

[1] = system: TNFα expression in microglial cell line (EOC20); assay: TNFα expression in microglial cells, Real-Time PCR; assay type: cell-based, human
Method: In order to validate the hypothesis that TNFα stimulation is regulated by an autocrine loop (i.e., TNFα induces expression of TNFα; see FIG. 2), a microglial cell line (EOC20) […] was stimulated in vitro by addition of TNFα (20 ng/ml).
1 hour prior to addition of TNFα, stimulated or unstimulated cells, respectively, were treated with DMSO (vehicle control), or 0.5 μM and 0.05 μM, respectively, of compound A. Cells were harvested 48 h after addition of TNFα. RNA was isolated from the samples and the amount of amplicon of TNFα (and of other cytokines) and of several housekeeping genes was measured by light cycler-based Real-Time PCR.

T6 sequence (P50750 whole entry): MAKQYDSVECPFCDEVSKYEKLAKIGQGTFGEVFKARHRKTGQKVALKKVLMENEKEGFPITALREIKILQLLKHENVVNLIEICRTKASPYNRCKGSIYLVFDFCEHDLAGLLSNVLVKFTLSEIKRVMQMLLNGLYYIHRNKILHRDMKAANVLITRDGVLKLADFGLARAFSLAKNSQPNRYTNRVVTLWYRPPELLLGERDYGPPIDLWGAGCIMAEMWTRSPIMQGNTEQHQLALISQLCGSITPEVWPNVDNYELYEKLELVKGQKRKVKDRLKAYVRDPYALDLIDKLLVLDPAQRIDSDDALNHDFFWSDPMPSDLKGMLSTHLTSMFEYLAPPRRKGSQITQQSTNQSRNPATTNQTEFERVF
T6 sequence (O60563 whole entry partner): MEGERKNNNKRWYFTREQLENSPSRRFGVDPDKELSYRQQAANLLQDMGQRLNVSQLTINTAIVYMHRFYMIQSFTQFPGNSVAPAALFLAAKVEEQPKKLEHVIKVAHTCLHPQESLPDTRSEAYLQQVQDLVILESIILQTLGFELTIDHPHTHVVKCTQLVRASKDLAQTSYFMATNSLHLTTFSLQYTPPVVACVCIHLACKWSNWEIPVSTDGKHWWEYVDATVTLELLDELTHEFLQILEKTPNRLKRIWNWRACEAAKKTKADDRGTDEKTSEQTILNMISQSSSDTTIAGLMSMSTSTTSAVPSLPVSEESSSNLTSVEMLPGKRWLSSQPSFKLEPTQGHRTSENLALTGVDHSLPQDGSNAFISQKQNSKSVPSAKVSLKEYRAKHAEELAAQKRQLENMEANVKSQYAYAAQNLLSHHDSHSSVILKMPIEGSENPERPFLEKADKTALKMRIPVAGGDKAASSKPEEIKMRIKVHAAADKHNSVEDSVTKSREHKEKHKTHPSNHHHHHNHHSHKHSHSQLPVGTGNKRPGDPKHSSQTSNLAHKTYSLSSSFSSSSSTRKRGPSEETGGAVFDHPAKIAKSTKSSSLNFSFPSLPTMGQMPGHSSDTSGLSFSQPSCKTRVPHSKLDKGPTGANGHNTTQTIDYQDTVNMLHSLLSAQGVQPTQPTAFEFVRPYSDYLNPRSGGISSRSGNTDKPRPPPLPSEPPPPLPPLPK
T5 sequence (Q00534 whole entry): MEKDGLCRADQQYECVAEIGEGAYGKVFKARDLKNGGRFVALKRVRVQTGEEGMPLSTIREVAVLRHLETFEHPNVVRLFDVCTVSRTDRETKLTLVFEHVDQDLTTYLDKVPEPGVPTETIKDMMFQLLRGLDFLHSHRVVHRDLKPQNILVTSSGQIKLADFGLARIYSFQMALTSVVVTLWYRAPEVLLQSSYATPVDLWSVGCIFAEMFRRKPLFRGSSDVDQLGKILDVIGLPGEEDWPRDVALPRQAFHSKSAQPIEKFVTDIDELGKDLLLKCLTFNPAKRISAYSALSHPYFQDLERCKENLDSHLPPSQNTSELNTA
T5 sequence (P24385 whole entry partner): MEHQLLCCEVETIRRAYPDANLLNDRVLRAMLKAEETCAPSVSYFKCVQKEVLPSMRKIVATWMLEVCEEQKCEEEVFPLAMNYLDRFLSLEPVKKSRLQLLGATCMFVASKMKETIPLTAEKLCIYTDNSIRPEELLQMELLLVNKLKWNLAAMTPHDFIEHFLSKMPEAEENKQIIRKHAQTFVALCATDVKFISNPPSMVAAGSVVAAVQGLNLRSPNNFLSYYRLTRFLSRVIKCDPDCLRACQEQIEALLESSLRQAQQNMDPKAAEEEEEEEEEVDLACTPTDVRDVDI
T4 sequence (Q00535 whole entry): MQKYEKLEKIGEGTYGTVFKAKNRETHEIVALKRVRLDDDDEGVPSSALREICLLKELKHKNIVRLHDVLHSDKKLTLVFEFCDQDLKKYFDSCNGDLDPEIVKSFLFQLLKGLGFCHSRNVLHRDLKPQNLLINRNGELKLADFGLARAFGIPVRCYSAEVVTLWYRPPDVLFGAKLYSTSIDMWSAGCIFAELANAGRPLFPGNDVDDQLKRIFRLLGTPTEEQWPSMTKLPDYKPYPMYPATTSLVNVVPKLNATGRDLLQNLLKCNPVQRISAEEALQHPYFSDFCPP
T4 sequence (Q15078 whole entry partner): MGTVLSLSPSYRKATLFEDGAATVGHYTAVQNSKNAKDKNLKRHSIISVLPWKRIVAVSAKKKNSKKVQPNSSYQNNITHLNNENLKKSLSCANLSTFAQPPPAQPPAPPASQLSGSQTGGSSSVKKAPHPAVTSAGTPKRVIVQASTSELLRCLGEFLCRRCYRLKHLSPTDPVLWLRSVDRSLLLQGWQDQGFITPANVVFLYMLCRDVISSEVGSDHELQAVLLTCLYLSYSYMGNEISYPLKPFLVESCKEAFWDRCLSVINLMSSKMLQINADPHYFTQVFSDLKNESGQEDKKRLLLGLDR
T2 sequence (Q00526 whole entry): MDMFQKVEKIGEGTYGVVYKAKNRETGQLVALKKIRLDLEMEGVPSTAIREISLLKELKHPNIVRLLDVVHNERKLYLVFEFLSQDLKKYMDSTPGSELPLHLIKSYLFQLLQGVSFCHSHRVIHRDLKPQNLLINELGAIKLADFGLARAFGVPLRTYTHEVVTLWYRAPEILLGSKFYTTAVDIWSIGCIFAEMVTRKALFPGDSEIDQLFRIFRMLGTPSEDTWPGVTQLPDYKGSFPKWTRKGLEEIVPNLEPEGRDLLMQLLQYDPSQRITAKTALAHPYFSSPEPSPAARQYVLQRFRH
T2 sequence (P24864 whole entry partner): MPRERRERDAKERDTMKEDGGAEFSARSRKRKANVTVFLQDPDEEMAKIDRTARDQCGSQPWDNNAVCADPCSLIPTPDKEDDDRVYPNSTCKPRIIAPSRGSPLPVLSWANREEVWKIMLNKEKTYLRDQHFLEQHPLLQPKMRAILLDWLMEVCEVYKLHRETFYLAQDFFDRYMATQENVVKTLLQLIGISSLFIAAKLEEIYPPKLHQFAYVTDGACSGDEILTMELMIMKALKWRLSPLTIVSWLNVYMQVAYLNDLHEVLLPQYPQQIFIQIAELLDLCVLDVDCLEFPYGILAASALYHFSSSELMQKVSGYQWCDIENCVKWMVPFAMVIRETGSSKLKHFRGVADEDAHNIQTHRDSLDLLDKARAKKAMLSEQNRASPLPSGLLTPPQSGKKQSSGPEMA
T1 sequence (P06493 whole entry): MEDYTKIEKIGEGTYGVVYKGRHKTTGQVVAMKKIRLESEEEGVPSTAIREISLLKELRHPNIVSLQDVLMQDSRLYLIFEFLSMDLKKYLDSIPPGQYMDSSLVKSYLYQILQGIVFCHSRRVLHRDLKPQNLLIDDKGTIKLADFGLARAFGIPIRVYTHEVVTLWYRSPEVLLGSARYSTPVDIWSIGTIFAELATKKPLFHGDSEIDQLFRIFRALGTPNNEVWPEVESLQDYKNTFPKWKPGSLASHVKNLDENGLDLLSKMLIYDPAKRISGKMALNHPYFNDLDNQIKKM
T1 sequence (P14635 whole entry partner): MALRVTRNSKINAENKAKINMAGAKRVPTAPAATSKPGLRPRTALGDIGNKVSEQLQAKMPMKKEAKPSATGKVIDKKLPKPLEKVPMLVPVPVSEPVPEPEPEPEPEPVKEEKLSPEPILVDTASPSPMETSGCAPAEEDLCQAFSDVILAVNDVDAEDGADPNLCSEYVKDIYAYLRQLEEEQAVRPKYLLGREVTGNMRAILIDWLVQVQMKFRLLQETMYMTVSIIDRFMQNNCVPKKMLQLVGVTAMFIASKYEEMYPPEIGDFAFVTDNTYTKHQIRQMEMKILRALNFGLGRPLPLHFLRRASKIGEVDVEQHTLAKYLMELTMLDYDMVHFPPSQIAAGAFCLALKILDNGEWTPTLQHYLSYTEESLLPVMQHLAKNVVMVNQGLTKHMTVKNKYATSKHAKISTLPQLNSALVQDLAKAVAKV
T3 sequence (P11802 whole entry): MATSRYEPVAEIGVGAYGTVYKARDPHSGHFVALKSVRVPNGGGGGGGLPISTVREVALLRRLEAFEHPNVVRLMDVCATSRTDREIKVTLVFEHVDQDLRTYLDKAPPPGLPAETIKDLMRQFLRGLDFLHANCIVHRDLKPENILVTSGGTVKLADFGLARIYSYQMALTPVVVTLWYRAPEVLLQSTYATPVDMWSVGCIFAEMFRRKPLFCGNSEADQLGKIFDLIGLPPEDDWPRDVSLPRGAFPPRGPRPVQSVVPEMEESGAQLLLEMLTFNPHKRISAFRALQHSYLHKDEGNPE
T3 sequence (P24385 whole entry partner): as the sequence (P24385 whole entry partner) above

COc1ccccc1-c1cc(Nc2cccc(S(N)(=O)=O)c2)ncn1 [Compound A]
IC50 (CDK1/CycB): 15.8 µM
IC50 (CDK3/CycE): 18.5 µM
IC50 (CDK4/CycD1): 2.79 µM
IC50 (CDK5/p35NCK): 58.1 µM
IC50 (CDK6/CycD1): 1.91 µM
IC50 (CDK9/CycT; CDK9/CycT): 0.63 µM
specificity for CDK9 over other CDKs (CDK9/CycT; from IC50 values of Table 1): high specificity for CDK9
TNFα message in unstimulated cells ([1]; EOC20 cells without TNFα stimulation, 0.5 μM and 0.05 μM compound): reduction of TNFα message
TNFα amplicon in TNFα-stimulated cells ([1]; EOC20 cells, TNFα 20 ng/ml, 0.5 μM and 0.05 μM compound 1 hour prior, harvested 48 h): dose-dependent reduction
